A word on the IC50: it is the concentration at which inhibition is half-maximal.

Our source for the IC50 values is patent US8063065B2, “Azaindazole compounds as CCR1 receptor antagonists” (Boehringer Ingelheim International GmbH, priority 2008, dated 2011).

The target of the experiment is T1, CCR1 (Homo sapiens, UniProt P32246).
T1 sequence (P32246 1-355): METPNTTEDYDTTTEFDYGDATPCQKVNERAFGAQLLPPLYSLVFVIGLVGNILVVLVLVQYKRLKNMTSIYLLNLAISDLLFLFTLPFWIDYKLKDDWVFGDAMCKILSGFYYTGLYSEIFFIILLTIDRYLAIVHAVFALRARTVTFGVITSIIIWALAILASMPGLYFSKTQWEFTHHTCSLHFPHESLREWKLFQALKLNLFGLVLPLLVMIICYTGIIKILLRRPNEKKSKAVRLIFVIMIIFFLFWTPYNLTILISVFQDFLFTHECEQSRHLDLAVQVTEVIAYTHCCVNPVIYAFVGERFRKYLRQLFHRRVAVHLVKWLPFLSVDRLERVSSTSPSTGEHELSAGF
The experiment can be described thus: Method B: calcium flux in CCR1 transfected cells (Calcium 4 dye, […] FDSS6000), block of the CCR1/MIP-1α interaction. Particulars: Method B: Calcium 4 dye, MIP-1alpha at EC80. It is filed as cell-based. The procedure:
Compounds are assessed for the ability to block the interaction of CCR1 and MIP-1α in a functional cellular assay measuring calcium flux in CCR1 transfected cells.
Method B: Non-adherent cells purchased from Chemicon Corporation (HTS005C), stably expressing recombinant CCR1 and G-alpha-16 are grown in RPMI 1640 medium (Mediatech 10-080-CM) supplemented with 10% FBS, 0.4 mg/mL Geneticin and penicillin/streptomycin. On the day of the assay, the cells are loaded with Calcium 4 dye (Molecular Devices R7448) with Probenecid (Invitrogen P346400) at 8E5 cells/mL for 1 hour at room temperature. After 1 hour, they are seeded in a 384-well tissue culture-treated plate at a density of 20,000 cells/well. Appropriately diluted test compound is added to the well to achieve a top concentration of 3,000 nM (diluted 4-fold with 10 doses total). The final concentration of DMSO is 1%. The buffer is HBSS (Invitrogen 14025) with 20 mM HEPES at pH 7.4. The cells incubate 30 minutes at 37 C and then 30 minutes at room temperature. The plates are transferred to the […] FDSS6000 where MIP-1alpha in 1% BSA is added at the EC80 final concentration. All plates must be read within 4 hours of the start of dye-loading. Wells+/−MIP-1alpha containing diluted DMSO instead of compound serve as the controls. Data are analyzed using Activity Base software.

For `CCC(NC(=O)c1cncc2c1cnn2-c1ccc(F)cc1)c1nc(C(=O)NC)c(C)o1` (stereo not shown) [1-(4-Fluorophenyl)-1H-pyrazolo[3,4-c]pyridine-4-carboxylic acid [1-(5-methyl-4-methylcarbamoyl-oxazol-2-yl)-propyl]-amide], the half-inhibitory concentration (IC50) was 9 nM.

As to `CC(=O)N(C)c1ncc(CNC(=O)c2cncc3c2cnn3-c2ccc(F)cc2)cn1` [1-(4-Fluorophenyl)-1H-pyrazolo[3,4-c]pyridine-4-carboxylic acid [2-(acetyl-methyl-amino)-pyrimidin-5-ylmethyl]-amide], the half-maximal inhibitory concentration (IC50) turned out to be 24 nM.

With `CCS(=O)(=O)c1cccc([C@H](C)NC(=O)c2cncc3c2cnn3-c2ccc(F)cc2)n1` [1-(4-Fluorophenyl)-1H-pyrazolo[3,4-c]pyridine-4-carboxylic acid [(S)-1-(6-ethanesulfonyl-pyridin-2-yl)-ethyl]-amide], the half-inhibitory concentration (IC50) is 14 nM.

Turning to `CS(=O)(=O)c1cc(CNC(=O)c2cncc3c2cnn3-c2ccc(F)cc2)cc(=O)[nH]1` [1-(4-Fluorophenyl)-1H-pyrazolo[3,4-c]pyridine-4-carboxylic acid (6-methanesulfonyl-2-oxo-1,2-dihydropyridin-4-ylmethyl)-amide], the IC50 stood at 17 nM.

Take `COC[C@H](NC(=O)c1cncc2c1cnn2-c1ccc(F)cc1)c1ccnc(S(C)(=O)=O)c1` [1-(4-Fluorophenyl)-1H-pyrazolo[3,4-c]pyridine-4-carboxylic acid [(R)-1-(2-methanesulfonyl-pyridin-4-yl)-2-methoxy-ethyl]-amide]: the IC50 came to 1 nM.

Take `CCC(NC(=O)c1cncc2c1cnn2-c1ccc(F)cc1)c1nc(C(=O)NCC#N)c(C)o1` (stereo not shown) [1-(4-Fluorophenyl)-1H-pyrazolo[3,4-c]pyridine-4-carboxylic acid {1-[4-(cyanomethyl-carbamoyl)-5-methyl-oxazol-2-yl]-propyl}-amide]: the IC50 was 18 nM.

Consider `CCC[C@H](NC(=O)c1cncc2c1cnn2-c1ccc(F)cc1)c1ccnc(S(=O)(=O)CC)c1` [1-(4-Fluorophenyl)-1H-pyrazolo[3,4-c]pyridine-4-carboxylic acid [(S)-1-(2-ethanesulfonyl-pyridin-4-yl)-butyl]-amide], for which the half-maximal inhibitory concentration (IC50) is 0.1 nM.

With `CC[C@H](NC(=O)c1cncc2c1cnn2-c1ccc(F)cc1)c1ccnc(N2CCC(S(C)(=O)=O)CC2)c1` [1-(4-Fluorophenyl)-1H-pyrazolo[3,4-c]pyridine-4-carboxylic acid [(S)-1-(4-methanesulfonyl-3,4,5,6-tetrahydro-2H-[1,2′]bipyridinyl-4′-yl)-propyl]-amide], the IC50 came out at 13 nM.

In the case of `CC[C@H](NC(=O)c1cncc2c1cnn2-c1ccc(F)cc1)c1cccc(S(=O)(=O)CCC(=O)OC)n1` [3-[6-((S)-1-{[1-(4-Fluorophenyl)-1H-pyrazolo[3,4-c]pyridine-4-carbonyl]-amino}-propyl)-pyridine-2-sulfonyl]-propionic acid methyl ester], the IC50 came out at 3 nM.

Take `CCC[C@@H](NC(=O)c1cncc2c1cnn2-c1ccc(F)cc1)c1ccc(OC)c(S(C)(=O)=O)c1` [1-(4-Fluorophenyl)-1H-pyrazolo[3,4-c]pyridine-4-carboxylic acid [(R)-1-(3-methanesulfonyl-4-methoxy-phenyl)-butyl]-amide]: the concentration for half-maximal inhibition (IC50) turned out to be 0.2 nM.

In the case of `C[C@H](NC(=O)c1cncc2c1cnn2-c1ccc(F)cc1)c1cnc(S(C)(=O)=O)o1` [1-(4-Fluorophenyl)-1H-pyrazolo[3,4-c]pyridine-4-carboxylic acid [(S)-1-(2-methanesulfonyl-oxazol-5-yl)-ethyl]-amide], the IC50 stood at 19 nM.

On to `CCC(NC(=O)c1cncc2c1cnn2-c1ccc(F)cc1)C1CCN(C(N)=O)CC1` (stereo not shown) [1-(4-Fluorophenyl)-1H-pyrazolo[3,4-c]pyridine-4-carboxylic acid [1-(1-carbamoyl-piperidin-4-yl)-propyl]-amide], for which the concentration for half-maximal inhibition (IC50) was 16 nM.

On to `CCOC(=O)Cn1cc([C@H](CC)NC(=O)c2cncc3c2cnn3-c2ccc(F)cc2)cn1` [[4-((S)-1-{[1-(4-Fluorophenyl)-1H-pyrazolo[3,4-c]pyridine-4-carbonyl]-amino}-propyl)-pyrazol-1-yl]-acetic acid ethyl ester], for which the half-inhibitory concentration (IC50) was found to be 25 nM.

For the compound `C[C@H](NC(=O)c1cncc2c1cnn2-c1ccc(F)cc1)c1ccnc(Br)c1` [1-(4-Fluorophenyl)-1H-pyrazolo[3,4-c]pyridine-4-carboxylic acid [(S)-1-(2-bromopyridin-4-yl)-ethyl]-amide], the IC50 came to 0.4 nM.

On to `CC[C@H](NC(=O)c1cncc2c1cnn2-c1ccc(F)cc1)c1ccccn1` [1-(4-Fluorophenyl)-1H-pyrazolo[3,4-c]pyridine-4-carboxylic acid ((S)-1-pyridin-2-yl-propyl)-amide], for which the half-maximal inhibitory concentration (IC50) worked out at 23 nM.

`CC[C@H](NC(=O)c1cncc2c1cnn2-c1ccc(F)cc1)c1cc(N(C)CC(N)=O)nc(S(C)(=O)=O)c1` [1-(4-Fluorophenyl)-1H-pyrazolo[3,4-c]pyridine-4-carboxylic acid {(S)-1-[2-(carbamoylmethyl-methyl-amino)-6-methanesulfonyl-pyridin-4-yl]-propyl}-amide]: the half-inhibitory concentration (IC50) was found to be 0.3 nM.

As to `CC[C@H](NC(=O)c1cncc2c1cnn2-c1ccc(F)cc1)c1ccc(O)c(S(C)(=O)=O)c1` [1-(4-Fluorophenyl)-1H-pyrazolo[3,4-c]pyridine-4-carboxylic acid [(S)-1-(4-hydroxy-3-methanesulfonyl-phenyl)-propyl]-amide], the IC50 was determined as 0.2 nM.

As for `CC[C@H](NC(=O)c1cncc2c1cnn2-c1ccc(F)cc1)c1cccc(Br)n1` [1-(4-Fluorophenyl)-1H-pyrazolo[3,4-c]pyridine-4-carboxylic acid [(S)-1-(6-bromopyridin-2-yl)-propyl]-amide], the IC50 came out at 0.2 nM.

As for `CC[C@H](NC(=O)c1cncc2c1cnn2-c1ccc(F)cc1)c1ccnc(NC)c1` [1-(4-Fluorophenyl)-1H-pyrazolo[3,4-c]pyridine-4-carboxylic acid [(S)-1-(2-methylamino-pyridin-4-yl)-propyl]-amide], the half-maximal inhibitory concentration (IC50) was 4 nM.

In the case of `CCC(NC(=O)c1cncc2c1cnn2-c1ccc(F)cc1)c1nc(C(=O)NCC(N)=O)c(C)o1` (stereo not shown) [1-(4-Fluorophenyl)-1H-pyrazolo[3,4-c]pyridine-4-carboxylic acid {1-[4-(carbamoylmethyl-carbamoyl)-5-methyl-oxazol-2-yl]-propyl}-amide], the 50% inhibitory concentration (IC50) was 25 nM.

Consider `COc1cc(CNC(=O)c2cncc3c2cnn3-c2ccc(F)cc2)cc(S(C)(=O)=O)n1` [1-(4-Fluorophenyl)-1H-pyrazolo[3,4-c]pyridine-4-carboxylic acid (2-methanesulfonyl-6-methoxy-pyridin-4-ylmethyl)-amide], for which the IC50 is 1 nM.

Regarding `CCC(NC(=O)c1cncc2c1cnn2-c1ccc(F)cc1)c1nc(C(=O)NCC(=O)OC)c(C)o1` (stereo not shown) [{[2-(1-{[1-(4-Fluorophenyl)-1H-pyrazolo[3,4-c]pyridine-4-carbonyl]-amino}-propyl)-5-methyl-oxazole-4-carbonyl]-amino}-acetic acid methyl ester], the IC50 was 26 nM.

On to `CCC(NC(=O)c1cncc2c1cnn2-c1ccc(F)cc1)c1nc(C(N)=O)co1` (stereo not shown) [1-(4-Fluorophenyl)-1H-pyrazolo[3,4-c]pyridine-4-carboxylic acid [1-(4-carbamoyl-oxazol-2-yl)-propyl]-amide], for which the IC50 was 36 nM.

Regarding `CCC[C@H](NC(=O)c1cncc2c1cnn2-c1ccc(F)cc1)c1ccc(S(C)(=O)=O)nc1` [1-(4-Fluorophenyl)-1H-pyrazolo[3,4-c]pyridine-4-carboxylic acid [(S)-1-(6-methanesulfonyl-pyridin-3-yl)-butyl]-amide], the IC50 was 0.4 nM.

Consider `CC[C@H](NC(=O)c1cncc2c1cnn2-c1ccc(F)cc1)c1cc(S(C)(=O)=O)co1` [1-(4-Fluorophenyl)-1H-pyrazolo[3,4-c]pyridine-4-carboxylic acid [(S)-1-(4-methanesulfonyl-furan-2-yl)-propyl]-amide], for which the IC50 was found to be 6 nM.

On to `C[C@H](NC(=O)c1cncc2c1cnn2-c1ccc(F)cc1)c1cccc(S(C)(=O)=O)c1` [1-(4-Fluorophenyl)-1H-pyrazolo[3,4-c]pyridine-4-carboxylic acid [(S)-1-(3-methanesulfonyl-phenyl)-ethyl]-amide], for which the IC50 worked out at 1 nM.

In the case of `CS(=O)(=O)c1ncc(CNC(=O)c2cncc3c2cnn3-c2ccc(F)cc2)s1` [1-(4-Fluorophenyl)-1H-pyrazolo[3,4-c]pyridine-4-carboxylic acid (2-methanesulfonyl-thiazol-5-ylmethyl)-amide], the half-maximal inhibitory concentration (IC50) worked out at 17 nM.

Consider `CC[C@H](NC(=O)c1cncc2c1cnn2-c1ccc(F)cc1)c1ccnc(N2CCOCC2)c1` [1-(4-Fluorophenyl)-1H-pyrazolo[3,4-c]pyridine-4-carboxylic acid [(S)-1-(2-morpholin-4-yl-pyridin-4-yl)-propyl]-amide], for which the IC50 turned out to be 0.7 nM.
